{"source": "patent US20090215713A1", "about": "“Use of atp for the manufacture of a medicament for the prevention and treatment of oxidative stress and related conditions” (priority 2004, published 2009)", "key": {"GSH and GSH/GSSG ratios": {"test_system": "GSH and GSH/GSSG ratios", "assay": "Intracellular GSH and GSH/GSSG ratios in whole blood after γ-irradiation", "type": "cell-based", "conditions": "300 μM ATP, 16 Gy", "procedure": "Samples with 5 ml of blood were pre-incubated with 300 μM ATP or medium (control) for 30 minutes. Then, at t=0, each blood sample was irradiated with γ-radiation at a dose of 16 Gy. Preceding irradiation (baseline) and at 1 h, 3 h and 5 h post-irradiation, a sample was taken for analysis of intracellular GSH and GSH/GSSG ratios according to standard methods, as well as for cytokine analysis by the ELISA method."}, "IL-6": {"test_system": "IL-6", "assay": "LPS+PHA-induced IL-6 secretion in whole blood from healthy subjects (ELISA)", "type": "cell-based, human", "conditions": "indicated ATP concentrations, 24 h", "procedure": "FIG. 9 Effect of ATP on LPS+PHA-induced IL-6 secretion in whole blood from healthy subjects. The whole blood was exposed to 10 μg/ml LPS and 1 μg/ml PHA with indicated concentrations of ATP for 24 h. The IL-6 released into the supernatants was analyzed using the ELISA method. Results are expressed in percentage, 100% being the IL-6 release under stimulation by LPS+PHA without ATP. […] Data are expressed at the mean values; error bars represent SEM.\nBlood was collected from 8 healthy subjects in heparin containing vacutainer tubes. All incubations were performed in duplicate. ATP was dissolved in RPMI 1640 culture medium, at a final concentration of 1-300 μM, and blood pre-incubated with ATP at 5% CO2 at 37 DC for 30 min. After stimulation with LPS en PHA (10 and 1 μg/ml final concentration, respectively), the plates were incubated in 5% CO2 at 37° C. for 24 h. Cell-free supernatant fluids were then collected by centrifugation (6000 rpm, 10 min at 4° C.) and stored at −20° C. until tested for presence of cytokines. All cytokines were quantified by means of PeliKine Compact human ELISA kits (CLB/Sanquin, The Netherlands), based on appropriate and validated sets of monoclonal antibodies."}, "TNF-α/IL-10 ratio [1]": {"test_system": "TNF-α/IL-10 ratio", "assay": "TNF-α/IL-10 ratio in whole blood from patients with oxidative stress-related diseases", "type": "cell-based, human", "conditions": "for reduction in the TNF-α/IL-10 ratio: 300 μM ATP", "procedure": "(§1) FIG. 15 Effect of ATP on the ratio of TNF-α/IL-10 secretion in whole blood from a patient with oxidative stress-related disease. […] In both experiments, TNF-α and IL-10 released into the supernatants was analyzed using the ELISA method. Results are expressed in percentage, 100% being the TNF-α/IL-10 ratio without ATP (control).\nas §1, with “16” for “15”, “(control). Both in untreated and in LPS-PHA stimulated blood, the ratio of TNF-α/IL-10 release from whole blood was reduced by the addition of ATP.” for “(control).”\nFIG. 17 Effect of ATP on the ratio of TNF-α/IL-10 secretion in whole blood from a patient with oxidative stress-related disease. […] TNF-α and IL-10 released into the supernatants was analyzed using the ELISA method. Results are expressed in percentage, 100% being the TNF-α/IL-10 ratio without ATP (control). The ratio of TNF-α/IL-10 release from whole blood was reduced by the addition of ATP.\nThis experiment was performed to test the effects of ATP ex vivo in whole blood collected from patients with oxidative stress-related diseases, both without and with LPS+PHA stimulation of cytokine production. Whole blood from 3 patients with different oxidative stress-related diseases was collected as described for experiment 2, and incubated for 24 hours at 5% CO2 and 37° C., with ATP added at a final concentration 300 μM, or no ATP (control). Cytokine production was measured as in Experiment 2. Results were expressed as the TNF-α/IL-10 ratio relative to the control condition (no ATP)."}, "IL-10": {"test_system": "IL-10", "assay": "LPS+PHA-induced IL-10 secretion in whole blood under oxidative stress (H2O2)", "type": "cell-based, human", "procedure": "FIG. 11 Effect of ATP on LPS+PHA-induced IL-10 secretion in whole blood from healthy subjects under conditions of oxidative stress. Two concentrations of H2O2 (1 and 10 mM) were added to whole blood, together with the indicated concentrations of ATP. Then, blood was exposed to 10 μg/ml LPS and 1 μg/ml PHA, and incubated for 24 h. The IL-10 released into the supernatants was analyzed using the ELISA method. […] Data are expressed as the mean values; error bars represent SEM.\nWhole blood of healthy subjects was collected as described for Experiment 2, and pre-incubated with 1 or 10 mM H2O2 at 5% CO2 and 37° C. for 15 min. Then, ATP was added to the blood at final concentrations of 1-300 μM for the 30 min incubation step, and then incubated as in Experiment 2 with LPS/PHA for 24 hours."}, "[2]": {"assay": "ESR measurement of DMPO—OH spin adducts during Fenton chemistry", "type": "biochemical", "quoted_text": "The effect of ATP on the formation or scavenging of hydroxyl radicals, generated by Fenton reagents was measured as DMPO—OH spin adducts in ESR spectra. The ESR studies were performed at room temperature using a Bruker EMX 1273 spectrometer equipped with an ER 4119HS high sensitivity cavity and 12 kW power supply. The following instrument conditions were used: scan range, 60 G; center magnetic field, 3490 G; modulation amplitude, 1.0 G; microwave frequency, 9.86 GHz; time constant, 40.96 ms, scan time, 20.48 ms; number of scans, 50. OH radicals were generated by the Fenton reaction, and 5,5-dimethyl-1-pyrroline N-oxide (DMPO) was used for trapping hydroxyl radicals. Fifty microliters of 10 mM H2O2, 50 μl of 250 mM DMPO, 50 μl milliQ, 50 μl milliQ (control) or sample, and 50 μl 5 mM FeSO4/5 mM EDTA were mixed, and then transferred to a capillary glass tube. After 2 minutes, DMPO—OH spin adducts were measured by ESR. Quantification of the spectra was performed by peak integration using the WIN-EPR spectrum manipulation program.\nElectron spin resonance (ESR) studies were performed at room temperature using a Bruker EMX 1273 spectrometer equipped with an ER 4119HS high sensitivity cavity and 12 kW power supply. The following instrument conditions were used: scan range, 60 G; center magnetic field, 3490 G; modulation amplitude, 1.0 G; microwave frequency, 9.86 GHz; time constant, 40.96 ms, scan time, 20.48 ms; number of scans, 50. OH radicals were generated by the Fenton reaction, and 5,5-Dimethyl-1-pyrroline N-oxide (DMPO) was used for trapping hydroxyl radicals. Fifty microliters of 10 mM H2O2, 50 μl 250 mM DMPO, 50 μl milliQ, 50 μl milliQ (blanco) or sample and 50 μl 5 mM FeSO4/5 mM EDTA were mixed, transferred to a capillary glass tube and the DMPO—OH spin adducts were measured after 2 minutes by ESR. Quantification of the spectra (in arbitrary units) was performed by peak integration using the WIN-EPR spectrum manipulation program."}, "TNF-α/IL-10 ratio [3]": {"test_system": "TNF-α/IL-10 ratio", "assay": "TNF-α/IL-10 ratio in whole blood incubated with H2O2 without LPS+PHA", "type": "cell-based, human", "conditions": "300 μM ATP, 5 mM H2O2, no LPS+PHA", "procedure": "FIG. 14 Effect of ATP on cytokine secretion in whole blood under conditions of oxidative stress. Blood was pre-incubated with ATP or no ATP (control) for 30 min, followed by incubation with H2O2 (5 mM) or 24 h, without addition of LPS+PHA. The TNF-α and IL-10 released into the supernatant was analyzed using the ELISA method. Results are expressed in percentage, 100% being the TNF-α/IL-10 ratio when blood was incubated with H2O2 only, but no ATP (control). The TNF-alpha/IL-10 ratio was reduced by ATP in a concentration-dependent manner, with a 90% reduction at 300 μM ATP, indicating inhibition of inflammatory response.\nThis experiment was performed to test the effects of ATP under circumstances of oxidative stress in healthy subjects, but without LPS-PHA induced stimulation of cytokine production. Whole blood was collected as described for experiment 2, and was pre-incubated with ATP at final concentrations of 100-300 μM, or no ATP (control), for 30 min. Then, blood was incubated with H2O2 (5 mM) or 24 h, without addition of LPS+PHA. and incubated for 24 hours with 5 mM H2O2 at 5% CO2 and 37° C. Cytokine production was measured as in Experiment 2. Results were expressed as the TNF-α/IL-10 ratio relative to the control condition (H2O2 without ATP)."}, "[4]": {"assay": "Randomized clinical trial of ATP in advanced non-small-cell lung cancer (prior art)", "type": "in vivo, human", "conditions": "unpublished data 2005"}}, "note": "Entries after “also recorded” stand apart in the source; their conditions may differ.", "data": [{"molecule": "Nc1ncnc2c1ncn2[C@@H]1O[C@H](COP(=O)(O)OP(=O)(O)OP(=O)(O)O)[C@@H](O)[C@H]1O", "note": "[ATP, Adenosine 5′-triphosphate]", "values": [{"measurement": "effect on irradiation-induced decrease in GSH and GSH/GSSG ratios", "setting": "GSH and GSH/GSSG ratios", "value": "attenuation"}, {"measurement": "effect on LPS+PHA-induced IL-6 release", "setting": "IL-6", "value": "No effect; also recorded: not influenced"}, {"measurement": "reduction in the TNF-α/IL-10 ratio", "setting": "TNF-α/IL-10 ratio [1]; patient blood stimulated with LPS+PHA, depending on the patient", "value": "40-80%"}, {"measurement": "reduction in the TNF-α/IL-10 ratio", "setting": "TNF-α/IL-10 ratio [1]; patient blood without LPS+PHA", "value": "60-80%"}, {"measurement": "effect on ratio of TNF-α/IL-10 release", "setting": "TNF-α/IL-10 ratio [1]; patient blood, untreated and/or LPS+PHA-stimulated", "value": "markedly reduced"}, {"measurement": "increase in IL-10 release", "setting": "IL-10; 300 μM ATP, 1 or 10 mM H2O2, LPS-PHA", "value": "50-60%"}, {"measurement": "effect on LPS+PHA-induced IL-10 release", "setting": "IL-10; 1 or 10 mM H2O2", "value": "significantly increased"}, {"measurement": "effect on DMPO—OH spin adduct formation", "setting": "[2]; 100 μM", "value": "significant inhibition"}, {"measurement": "inhibition of the DMPO—OH spin adduct formation", "setting": "[2]; highest concentration used (range 0.1 mM-10 mM)", "value": "80% and ≈ 80%"}, {"measurement": "effect on DMPO—OH spin adduct formation vs control (buffer)", "setting": "[2]; representative ESR spectra, FIG. 1", "value": "strongly inhibited"}, {"measurement": "reduction in the TNF-α/IL-10 ratio", "setting": "TNF-α/IL-10 ratio [3]", "value": 90, "unit": "%"}, {"measurement": "effect on blood sedimentation rate", "setting": "[4]", "value": "neither an effect"}]}]}
